The values below come from US20080004302A1, “Novel Compounds” (ASTRAZENECA AB, priority 2006, published 2008).

Experiment [1] has as its target T1, FGFR1 IIIc (Homo sapiens, UniProt P11362).
T1 construct: host or cells: Cos-1
Briefly: Cell based inhibition of transiently expressed FGFR1 IIIc phosphorylation (Cos-1 cells). As to the method:
This assay is designed to detect inhibitors of transiently expressed FGFR1 phosphorylation by antibody staining of fixed cells detected using ArrayScan technology.
To undertake the assay, Cos-1 cells were harvested at 90-95% confluence for cell transfection. For each 96-well plate, 24 ul Lipofectamine 2000 was added to 809 ul OptiMEM and incubated at room temperature for 5 minutes. […] Equal volumes of DNA and Lipofectamine 2000 were combined (DNA: Lipid=1:1.2 ratio) and incubated at room temperature for 20 minutes.
The harvested Cos-1 cells are counted using a coulter counter and diluted further with 1% FCS/DMEM to 2.5×10^5 cells/ml. For each 96-well, 8.33 ml cells were required. […] Media was removed from the wells using vacuum aspiration; cells were fixed by adding 50μl of 100% methanol to each well and incubated at room temperature for 20 minutes.
The plates were read on an Arrayscan (Cellomics).

The target in experiment [2] is T2, human IGF1R (Homo sapiens, UniProt P08069).
T2 construct: expressed in transfected cells; host or cells: R+ cells (R- mouse fibroblasts transfected with human IGF1R)
Kind of experiment: Inhibition of insulin-like growth factor-1 receptor phosphorylation in R+ cells. Type of experiment: cell-based. The settings on record: 30 nM IGF1, read-out: IGF cell class.

Experiment [3] deals with Erk phosphorylation. Briefly: Growth factor (bFGF) stimulated Erk phosphorylation in NIH 3T3 cells. The settings on record: Mus musculus, NIH3T3, NIH 3T3 cells, 3 ng/ml bFGF.
In experiment [4] the target is FGFR1 kinase (Homo sapiens, UniProt P11362). Briefly: Kinase assay (using Caliper technology). It is filed as biochemical. In outline:
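Human FGFR1 kinase activity measured with a 13-mer fluorescently tagged FGFR1-specific peptide substrate; compounds serially diluted in 5% (v/v) DMSO. Reactions ran 1.5 h at room temperature, stopped with EDTA-containing HEPES pH 7.5 buffer. Phosphorylated and unphosphorylated peptide separated by microfluidic mobility shift.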

The target in experiment [5] is T1, FGFR1 IIIc. Briefly: Cell based inhibition of transiently expressed FGFR1 IIIc phosphorylation via use of ECHO technology (Cos-1 cells).
Where [6] appears, read: Cos-1 cells, phospho-FGFR1, upper bound of bin, read-out: IC50.
[7] abbreviates: FGFR1 kinase, Caliper, upper bound of bin, read-out: IC50.
Setting [8] is: Cos-1 cells, phospho-FGFR1, ECHO dosing, upper bound of bin, read-out: IC50.

Structures can show the parent of a compound that is named as a salt. Where two headings read alike, the source gives them in different places.

T1 sequence (P11362 22-822): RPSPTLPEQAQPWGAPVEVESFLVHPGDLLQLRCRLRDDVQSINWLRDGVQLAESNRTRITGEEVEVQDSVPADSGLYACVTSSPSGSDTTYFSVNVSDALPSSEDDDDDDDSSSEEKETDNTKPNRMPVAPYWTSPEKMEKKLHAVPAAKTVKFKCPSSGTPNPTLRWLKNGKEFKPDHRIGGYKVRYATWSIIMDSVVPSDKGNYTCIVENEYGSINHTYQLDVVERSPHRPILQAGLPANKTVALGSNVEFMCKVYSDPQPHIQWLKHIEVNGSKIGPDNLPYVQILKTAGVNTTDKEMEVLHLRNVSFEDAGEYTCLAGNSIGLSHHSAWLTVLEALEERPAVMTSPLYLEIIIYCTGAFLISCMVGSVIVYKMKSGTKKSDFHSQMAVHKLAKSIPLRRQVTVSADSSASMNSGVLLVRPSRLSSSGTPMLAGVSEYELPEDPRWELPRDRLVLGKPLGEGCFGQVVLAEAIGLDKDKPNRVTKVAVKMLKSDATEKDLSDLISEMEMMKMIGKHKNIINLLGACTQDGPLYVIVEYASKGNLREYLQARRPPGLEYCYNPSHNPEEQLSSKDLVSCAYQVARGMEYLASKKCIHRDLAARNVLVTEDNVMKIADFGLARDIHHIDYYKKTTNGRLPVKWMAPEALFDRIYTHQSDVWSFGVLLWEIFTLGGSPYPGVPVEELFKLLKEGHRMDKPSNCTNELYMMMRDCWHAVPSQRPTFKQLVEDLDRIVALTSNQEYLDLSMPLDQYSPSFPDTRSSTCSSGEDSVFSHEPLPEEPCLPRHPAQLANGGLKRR
Sequence of FGFR1 kinase (P11362 22-822): as above
T2 sequence (P08069 31-1367): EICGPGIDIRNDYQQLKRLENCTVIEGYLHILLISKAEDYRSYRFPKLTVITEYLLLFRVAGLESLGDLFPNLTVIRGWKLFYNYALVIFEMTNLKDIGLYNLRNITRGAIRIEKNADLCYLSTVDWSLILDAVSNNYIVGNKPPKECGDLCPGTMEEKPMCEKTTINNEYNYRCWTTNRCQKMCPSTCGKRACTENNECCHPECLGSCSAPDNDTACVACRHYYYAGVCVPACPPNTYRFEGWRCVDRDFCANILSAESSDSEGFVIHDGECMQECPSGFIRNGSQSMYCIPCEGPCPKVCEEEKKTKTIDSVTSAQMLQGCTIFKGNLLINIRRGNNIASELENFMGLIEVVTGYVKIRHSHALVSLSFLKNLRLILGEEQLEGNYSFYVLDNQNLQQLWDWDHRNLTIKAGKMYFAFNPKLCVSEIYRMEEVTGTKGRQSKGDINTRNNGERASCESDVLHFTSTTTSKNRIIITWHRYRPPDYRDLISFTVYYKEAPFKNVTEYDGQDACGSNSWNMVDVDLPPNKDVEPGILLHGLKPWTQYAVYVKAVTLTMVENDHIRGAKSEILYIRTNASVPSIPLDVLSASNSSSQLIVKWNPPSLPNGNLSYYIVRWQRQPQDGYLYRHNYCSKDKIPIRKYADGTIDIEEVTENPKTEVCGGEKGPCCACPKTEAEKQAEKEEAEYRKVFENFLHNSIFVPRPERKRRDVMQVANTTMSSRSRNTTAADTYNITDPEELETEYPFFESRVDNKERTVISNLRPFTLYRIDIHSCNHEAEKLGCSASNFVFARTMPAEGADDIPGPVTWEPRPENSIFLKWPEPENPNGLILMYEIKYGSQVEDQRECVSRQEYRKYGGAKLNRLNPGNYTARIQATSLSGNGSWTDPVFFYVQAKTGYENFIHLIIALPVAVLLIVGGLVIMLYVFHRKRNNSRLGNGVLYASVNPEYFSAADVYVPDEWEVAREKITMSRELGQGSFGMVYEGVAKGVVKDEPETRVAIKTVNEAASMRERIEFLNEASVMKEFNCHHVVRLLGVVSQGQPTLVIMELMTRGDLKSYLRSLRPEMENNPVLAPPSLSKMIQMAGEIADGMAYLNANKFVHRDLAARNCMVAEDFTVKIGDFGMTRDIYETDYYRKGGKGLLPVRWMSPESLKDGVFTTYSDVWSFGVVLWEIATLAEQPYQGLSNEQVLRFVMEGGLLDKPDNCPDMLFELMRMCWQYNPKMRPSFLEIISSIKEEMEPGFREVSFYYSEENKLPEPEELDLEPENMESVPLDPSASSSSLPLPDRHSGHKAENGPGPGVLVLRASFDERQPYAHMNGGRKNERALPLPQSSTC

`Cc1cc(CNc2nccc(Nc3cc(CCc4cccc(OCc5ccccc5)c4)n[nH]3)n2)on1` [Example 38, N-[(3-methyl1,2-oxazol-5-yl)methyl]-N′-[5-[2-(3-phenylmethoxyphenyl)ethyl]-2H-pyrazol-3-yl]pyrimidine-2,4-diamine]: the IC50 in experiment [1] (setting [6]) is below 10000 nM; in experiment [2] it was 100 to 1000 nM; in experiment [3] (upper bound of bin), below 1000 nM; in experiment [4] (setting [7]) it was below 10000 nM.
Consider `Cc1cc(CNc2nccc(Nc3cc(CCc4ccccc4OCc4ccccc4)[nH]n3)n2)on1` [Example 39, N-[(3-methyl1,2-oxazol-5-yl)methyl]-N′-[5-[2-(2-phenylmethoxyphenyl)ethyl]-1H-pyrazol-3-yl]pyrimidine-2,4-diamine hydrochloride], for which the IC50 in experiment [1] (setting [6]) is below 10000 nM; in experiment [2], above 10000 nM; in experiment [3] (upper bound of bin) it was below 1000 nM; in experiment [4] (setting [7]) it was below 10000 nM.
Regarding `COCCOc1cccc(CCc2cc(Nc3ccnc(NCc4cc(C)no4)n3)n[nH]2)c1` [Example 40, N′-[5-[2-[3-(2-methoxyethoxy)phenyl]ethyl]-2H-pyrazol-3-yl]-N-[(3-methyl1,2-oxazol-5-yl)methyl]pyrimidine-2,4-diamine], the IC50 in experiment [1] (setting [6]) was below 10000 nM; in experiment [2], 1000 to 10000 nM; in experiment [3] (upper bound of bin), below 1000 nM; in experiment [4] (setting [7]), below 1000 nM.
Regarding `Cc1cc(CNc2nccc(Nc3cc(CCc4cccc(O)c4)[nH]n3)n2)on1` [Example 41, 3-[2-[5-[[2-[(3-methyl1,2-oxazol-5-yl)methylamino]pyrimidin-4-yl]amino]-1H-pyrazol-3-yl]ethyl]phenol], the IC50 is below 1000 nM in experiment [1] (setting [6]); 1000 to 10000 nM in experiment [2]; below 1000 nM in experiment [5] (setting [8]); below 200 nM in experiment [3]; below 200 nM in experiment [4] (setting [7]).
For `COc1cc(CCc2cc(Nc3ccnc(NCc4cc(C)no4)n3)n[nH]2)cc(OC)c1` [Example 42, N′-[5-[2-(3,5-dimethoxyphenyl)ethyl]-2H-pyrazol-3-yl]-N-[(3-methyl1,2-oxazol-5-yl)methyl]pyrimidine-2,4-diamine], the IC50 in experiment [1] was below 200 nM; in experiment [2], 1000 to 10000 nM; in experiment [5], below 200 nM; in experiment [3] it was below 200 nM; in experiment [4] it was below 200 nM.
Take `Cc1cc(CNc2nccc(Nc3cc(CCc4cc(O)cc(O)c4)[nH]n3)n2)on1` [Example 43, 5-[2-[5-[[2-[(3-methyl1,2-oxazol-5-yl)methylamino]pyrimidin-4-yl]amino]-1H-pyrazol-3-yl]ethyl]benzene-1,3-diol]: the IC50 in experiment [1] (setting [6]) is below 10000 nM; in experiment [2] it was above 10000 nM; in experiment [3] (upper bound of bin), below 1000 nM; in experiment [4] (setting [7]), below 200 nM.
For `COc1ccc(CCc2cc(Nc3ccnc(NCc4cc(C)no4)n3)n[nH]2)c(C)c1` [Example 47, N′-[5-[2-(4-methoxy-2-methyl-phenyl)ethyl]-2H-pyrazol-3-yl]-N-[(3-methyl1,2-oxazol-5-yl)methyl]pyrimidine-2,4-diamine] the same measures were below 1000 nM, 1000 to 10000 nM, below 1000 nM and below 1000 nM.
Turning to `Cc1cc(CNc2nccc(Nc3cc(CCc4cccc(C#N)c4)[nH]n3)n2)on1` [Example 48, 3-[2-[5-[[2-[(3-methyl-1,2-oxazol-5-yl)methylamino]pyrimidin-4-yl]amino]-2H-pyrazol-3-yl]ethyl]benzonitrile], the IC50 is below 10000 nM in experiment [1] (setting [6]), above 10000 nM in experiment [2], below 10000 nM in experiment [3] (upper bound of bin) and below 1000 nM in experiment [4] (setting [7]).
As to `Cc1cc(CNc2nccc(Nc3cc(CCc4cccc(OC(F)(F)F)c4)[nH]n3)n2)on1` [Example 51, N-[(3-methyl1,2-oxazol-5-yl)methyl]-N′-[5-[2-[3-(trifluoromethoxy)phenyl]ethyl]-1H-pyrazol-3-yl]pyrimidine-2,4-diamine], the IC50 in experiment [1] (setting [6]) is below 10000 nM; in experiment [2], above 10000 nM; in experiment [3] (upper bound of bin), below 10000 nM; in experiment [4] (setting [7]) it was below 10000 nM.
Consider `Cc1cc(CNc2nccc(Nc3cc(CCc4cccc(Br)c4)[nH]n3)n2)on1` [Example 53, N′-[5-[2-(3-bromophenyl)ethyl]-1H-pyrazol-3-yl]-N-[(3-methyl1,2-oxazol-5-yl)methyl]pyrimidine-2,4-diamine hydrochloride], for which the IC50 in experiment [1] (setting [6]) was below 1000 nM; in experiment [2], above 10000 nM; in experiment [3], below 200 nM; in experiment [3] (upper bound of bin) it was below 1000 nM; in experiment [4] (setting [7]) it was below 1000 nM.
As to `Cc1cc(CNc2nccc(Nc3cc(CCc4ccc5c(c4)OCO5)[nH]n3)n2)on1` [Example 54, N′-[5-(2-benzo [1,3]dioxol-5-ylethyl)-2H-pyrazol-3-yl]-N-[(3-methyl1,2-oxazol-5-yl)methyl]pyrimidine-2,4-diamine], the IC50 in experiment [1] (setting [6]) is below 1000 nM; in experiment [2] it was 1000 to 10000 nM; in experiment [3] (upper bound of bin), below 1000 nM; in experiment [4] (setting [7]) it was below 1000 nM.
On to `Cc1cc(CNc2nccc(Nc3cc(OCc4cccc(OS(C)(=O)=O)c4)[nH]n3)n2)on1` [Example 88, N-[(3-methyl1,2-oxazol-5-yl)methyl]-N′-[5-[(3-methylsulfonyloxyphenyl)methoxy]-2H-pyrazol-3-yl]pyrimidine-2,4-diamine], for which the IC50 in experiment [1] (setting [6]) was below 10000 nM; in experiment [2] it was above 10000 nM; in experiment [3] (upper bound of bin) it was below 10000 nM; in experiment [4] (setting [7]) it was below 1000 nM.
Consider `Cc1cc(CNc2nccc(Nc3cc(OCc4cccc(C(F)(F)F)c4)[nH]n3)n2)on1` [Example 95, N-[(3-methyl1,2-oxazol-5-yl)methyl]-N′-[5-[[3-(trifluoromethyl)phenyl]methoxy]-1H-pyrazol-3-yl]pyrimidine-2,4-diamine hydrochloride], for which the IC50 in experiment [1] (setting [6]) is below 10000 nM; in experiment [2] it was above 10000 nM; in experiment [3] (upper bound of bin) it was below 10000 nM; in experiment [4] (setting [7]), below 10000 nM.
As for `COC(=O)c1cccc(COc2cc(Nc3ccnc(NCc4cc(C)no4)n3)n[nH]2)c1` [Example 97, Methyl 3-[[5-[[2-[(3-methyl1,2-oxazol-5-yl)methylamino]pyrimidin-4-yl]amino]-1H-pyrazol-3-yl]oxymethyl]benzoate hydrochloride], the IC50 in experiment [1] (setting [6]) is below 200 nM; in experiment [2], 1000 to 10000 nM; in experiment [5] (setting [8]), below 200 nM; in experiment [3] it was below 200 nM.
Regarding `COc1cc(COc2cc(Nc3ccnc(NCc4cc(C)no4)n3)n[nH]2)ccc1F` [Example 100, N′-[5-[(4-fluoro-3-methoxy-phenyl)methoxy]-1H-pyrazol-3-yl]-N-[(3-methyl1,2-oxazol-5-yl)methyl]pyrimidine-2,4-diamine hydrochloride], the IC50 in experiment [1] (setting [6]) is below 10000 nM; in experiment [2], 1000 to 10000 nM; in experiment [3] (upper bound of bin), below 10000 nM; in experiment [4] (setting [7]), below 10000 nM.
As to `Cc1cc(CNc2nccc(Nc3cc(-c4ccco4)[nH]n3)n2)on1` [Example 105, N′-[5-(2-furyl)-1H-pyrazol-3-yl]-N-[(3-methyl1,2-oxazol-5-yl)methyl]pyrimidine-2,4-diamine], the IC50 in experiment [1] (setting [6]) was below 10000 nM; in experiment [2], above 10000 nM; in experiment [3] (upper bound of bin) it was below 1000 nM; in experiment [4] (setting [7]) it was below 1000 nM.
Regarding `Cc1cc(CNc2nccc(Nc3cc(CCC4CCOC4)[nH]n3)n2)on1` (centres unmarked) [Example 109, N-[(3-methyl1,2-oxazol-5-yl)methyl]-N′-[5-[2-(oxolan-3-yl)ethyl]-1H-pyrazol-3-yl]pyrimidine-2,4-diamine], the IC50 was below 10000 nM in experiment [1] (setting [6]), above 10000 nM in experiment [2], below 10000 nM in experiment [3] (upper bound of bin) and below 1000 nM in experiment [4] (setting [7]).
With `Cc1cc(CNc2nccc(Nc3cc(CCc4ccoc4)[nH]n3)n2)on1` [Example 110, N′-[5-[2-(3-furyl)ethyl]-1H-pyrazol-3-yl]-N-[(3-methyl1,2-oxazol-5-yl)methyl]pyrimidine-2,4-diamine], the IC50 is below 1000 nM in experiment [1] (setting [6]), 1000 to 10000 nM in experiment [2], below 1000 nM in experiment [3] (upper bound of bin) and below 200 nM in experiment [4] (setting [7]).
Take `c1cnc(-c2cc(CNc3nccc(Nc4cc(CCc5ccco5)[nH]n4)n3)on2)nc1` [Example 113, N′-[5-[2-(2-furyl)ethyl]-2H-pyrazol-3-yl]-N-[(3-pyrimidin-2-yl1,2-oxazol-5-yl)methyl]pyrimidine-2,4-diamine]: the IC50 in experiment [1] (setting [6]) was below 10000 nM; in experiment [2], 1000 to 10000 nM; in experiment [3] (upper bound of bin), below 10000 nM; in experiment [4] (setting [7]), below 200 nM.
Turning to `Cc1cc(CNc2nccc(Nc3cc(CCc4cc(C)nn4C)[nH]n3)n2)on1` [Example 118, N′-[5-[2-(2,5-dimethylpyrazol-3-yl)ethyl]-1H-pyrazol-3-yl]-N-[(3-methyl-1,2-oxazol-5-yl)methyl]pyrimidine-2,4-diamine], the IC50 in experiment [1] (setting [6]) is below 30000 nM; in experiment [2], above 10000 nM; in experiment [3] (upper bound of bin), below 30000 nM; in experiment [4] (setting [7]), below 1000 nM.
